Columns and labels:
Format in all cases: cell-based
MDA-MB-468 = experiment: Inhibition of proliferation of MDA-MB-468 cells by test compounds (CellTiter-Glo, 72 h); settings: MDA-MB-468, 72 h incubation
Experimental: 3: Test method • (1) Cell plating: first, tumor cells MDA-MB-468 were cultured using a corresponding culture medium, trypsinized, centrifuged, resuspended for counting, adjusted to an appropriate concentration, and then plated on a 384-well plate. • (2) Co-incubation of the compounds and tumor cells: after the cells adhered to the wall, 100 nL of a diluted bioactive substance (test compound) was added to the cell culture plate using ECHO, the final concentration of DMSO in wells of the cell plate was 0.33%, and the incubation was performed in an incubator at 37°C with […] for 72 h. • (3) After the incubation was complete, 30 µL of a CTG reagent (CelltiterGlo kit) was added to each well. The culture was oscillated on a fast oscillator for 2 min, centrifuged at 1,000 rpm for 1 min, and kept away from light at room temperature for 30 min. The chemiluminescence signal value was read using an Envision instrument. • (4) Cell viability detection: IC50 was calculated using GraphPad Prism 8 software, and the IC50 of the compounds was obtained using the following nonlinear fitting formula (see Table 2): • 6. Y=Bottom+(Top-Bottom)/(1+10^((LogIC50-X)*HillSlope)) • 7. […] Table 2 Antiproliferative activity of test compounds on MDA-MB-468

SK-BR-3 = experiment: Inhibition of proliferation of SK-BR-3 cells by compounds (CellTiter-Glo, 72 h); settings: SK-BR-3, 72 h incubation
Experimental: 3: Test method (1) Cell plating: first, tumor cells SK-BR-3 were cultured using a corresponding culture medium, trypsinized, centrifuged, resuspended for counting, adjusted to an appropriate concentration, and then plated on a 384-well plate. (2) Co-incubation of the compounds and tumor cells: after the cells adhered to the wall, 100 nL of a diluted bioactive substance (test compound) was added to the cell culture plate using ECHO, the final concentration of DMSO in wells of the cell plate was 0.33%, and the incubation was performed in an incubator at 37°C with 5% CO2 for 72 h. (3) After the incubation was complete, 30 µL of a CTG reagent (CelltiterGlo kit) was added to each well. The culture was oscillated on a fast oscillator for 2 min, centrifuged at 1,000 rpm for 1 min, and kept away from light at room temperature for 30 min. The chemiluminescence signal value was read using an Envision instrument. (4) Cell viability detection: IC50 was calculated using GraphPad Prism 8 software, and the IC50 of the compounds was obtained using the following nonlinear fitting formula (see Table 1) : 1. Y=Bottom+(Top-Bottom)/(1+10^((LogIC50-X)*HillSlope)) 2. […] Table 1 Antiproliferative activity of test compounds on SK-BR-3

NCI-N87 = experiment: Inhibition of proliferation of NCI-N87 cells by test compounds (CellTiter-Glo, 72 h); settings: NCI-N87, 72 h incubation
Experimental: 3: Test method (1) Cell plating: first, tumor cells NCI-N87 were cultured using a corresponding culture medium, trypsinized, centrifuged, resuspended for counting, adjusted to an appropriate concentration, and then plated on a 384-well plate. (2) Co-incubation of the compounds and tumor cells: after the cells adhered to the wall, 100 nL of a diluted bioactive substance (test compound) was added to the cell culture plate using ECHO, the final concentration of DMSO in wells of the cell plate was 0.33%, and the incubation was performed in an incubator at 37°C with […] for 72 h. (3) After the incubation was complete, 30 µL of a CTG reagent (CelltiterGlo kit) was added to each well. The culture was oscillated on a fast oscillator for 2 min, centrifuged at 1,000 rpm for 1 min, and kept away from light at room temperature for 30 min. The chemiluminescence signal value was read using an Envision instrument. (4) Cell viability detection: IC50 was calculated using GraphPad Prism 8 software, and the IC50 of the compounds was obtained using the following nonlinear fitting formula (see Table 3) : 11. Y=Bottom+(Top-Bottom)/(1+10^((LogIC50-X)*HillSlope)) 12. […] Table 3 Antiproliferative activity of test compounds on cells NCI-N87

| Molecule | IC50 (MDA-MB-468; Homo sapiens, MDA-MB-468, 72 h) [nM] | IC50 (SK-BR-3; Homo sapiens, SK-BR-3, 72 h) [nM] | IC50 (NCI-N87; Homo sapiens, NCI-N87, 72 h) [nM] | IC50 (MDA-MB-468) [nM] | IC50 (SK-BR-3) [nM] | IC50 (NCI-N87) [nM] |
| --- | --- | --- | --- | --- | --- | --- |
| CC[C@@]1(O)C(=O)OCc2c1cc1n(c2=O)Cc2c-1nc1cc(F)c(C3CC3)c3c1c2C(NC(=O)C[C@@H](C)O)CC3 (single isomer, unassigned) [17-1] | 5.8 | 4.6 | 3.6 | – | – | – |
| CC[C@@]1(O)C(=O)OCc2c1cc1n(c2=O)Cc2c-1nc1cc(F)c(C3CC3)c3c1c2C(NC(=O)[C@H]1C[C@@H](O)C1)CC3 (single isomer, unassigned) [18-2] | 12 | 9.6 | 16.5 | – | – | – |
| CC[C@@]1(O)C(=O)OCc2c1cc1n(c2=O)Cc2c-1nc1cc(F)c(C3CC3)c3c1c2C(NC(=O)C[C@@H](C)O)CCC3 (single isomer, unassigned) [19-1] | 7.1 | 8.3 | 7.4 | – | – | – |
| CC[C@@]1(O)C(=O)OCc2c1cc1n(c2=O)Cc2c-1nc1cc(F)c(C3CC3)c3c1c2C(NC(=O)C[C@@H](C)O)CCC3 (single isomer, unassigned) [19-2] | – | – | – | 6.9 | 7.6 | 7.4 |
| CC[C@@]1(O)C(=O)OCc2c1cc1n(c2=O)Cc2c-1nc1cc(F)c(C3CC3)c3c1c2C(NC(=O)[C@H]1C[C@@H](O)C1)CCC3 (single isomer, unassigned) [20-1] | 15.6 | 21 | 26 | – | – | – |
| CC[C@@]1(O)C(=O)OCc2c1cc1n(c2=O)Cc2c-1nc1cc(F)c(C3CC3)c3c1c2C(NC(=O)[C@H]1C[C@@H](O)C1)CCC3 (single isomer, unassigned) [20-2] | – | – | – | 19.5 | 25 | 28 |
| CC[C@@]1(O)C(=O)OCc2c1cc1n(c2=O)Cc2c-1nc1cc(F)c(C)c3c1c2C(NC(=O)[C@H]1C[C@@H](O)C1)CCO3 (single isomer, unassigned) [25-1] | – | – | – | 69 | 80 | 110 |
| CC[C@@]1(O)C(=O)OCc2c1cc1n(c2=O)Cc2c-1nc1cc(F)c(C)c3c1c2C(NC(=O)[C@H]1C[C@@H](O)C1)CCO3 (single isomer, unassigned) [25-2] | – | – | – | 18 | 19 | 40 |
| CC[C@@]1(O)C(=O)OCc2c1cc1n(c2=O)Cc2c-1nc1cc(F)c(Br)c3c1c2C(NC(=O)C[C@@H](C)O)CC3 (stereo partly drawn) [3-1, (R)-N-((1S,9S)-4-bromo-9-ethyl-5-fluoro-9-hydroxy-10,13-dioxo-2,3,9,10,13,15-hexahydro-1H,12H-benzo[de]pyrano[3',4',6,7]indolizino[1,2-b]quinolin-1-yl)-3-hydroxybutanamide] | – | – | – | 7.5 | 13 | 16 |
| CC[C@@]1(O)C(=O)OCc2c1cc1n(c2=O)Cc2c-1nc1cc(F)c(Br)c3c1c2C(NC(=O)C[C@@H](C)O)CC3 (stereo partly drawn) [3-2, (R)-N-((1R,9S)-4-bromo-9-ethyl-5-fluoro-9-hydroxy-10,13-dioxo-2,3,9,10,13,15-hexahydro-1H,12H-benzo[de]pyrano[3',4',6,7]indolizino[1,2-b]quinolin-1-yl)-3-hydroxybutanamide] | – | – | – | 12 | 15 | 16 |
| CC[C@@]1(O)C(=O)OCc2c1cc1n(c2=O)Cc2c-1nc1cc(F)cc3c1c2C(NC(=O)C[C@@H](C)O)CC3 (stereo partly drawn) [4-1, (R)-N-((1S,9S)-9-ethyl-5-fluoro-9-hydroxy-10,13-dioxo-2,3,9,10,13,15-hexahydro-1H,12H-benzo[de]pyrano[3',4',6,7]indolizino[1,2-b]quinolin-1-yl)-3-hydroxybutanamide] | – | – | – | 34 | 61 | – |
| CC[C@@]1(O)C(=O)OCc2c1cc1n(c2=O)Cc2c-1nc1cc(F)cc3c1c2C(NC(=O)C[C@@H](C)O)CC3 (stereo partly drawn) [4-2, (R)-N-((1R,9S)-9-ethyl-5-fluoro-9-hydroxy-10,13-dioxo-2,3,9,10,13,15-hexahydro-1H,12H-benzo[de]pyrano[3',4',6,7]indolizino[1,2-b]quinolin-1-yl)-3-hydroxybutanamide] | – | – | – | 13 | 14 | 22 |
| CC[C@@]1(O)C(=O)OCc2c1cc1n(c2=O)Cc2c-1nc1cc(F)c(OC(F)F)c3c1c2C(NC(=O)C[C@@H](C)O)CC3 (stereo partly drawn) [5-1, (R)-N-((1S,9S)-4-(difluoromethoxy)-9-ethyl-5-fluoro-9-hydroxy-10,13-dioxo-2,3,9,10,13,15-hexahydro-1H,12H-benzo[de]pyrano[3',4',6,7]indolizino[1,2-b]quinolin-1-yl)-3-hydroxybutanamide] | – | – | – | 6.7 | 20 | 14 |
| CC[C@@]1(O)C(=O)OCc2c1cc1n(c2=O)Cc2c-1nc1cc(F)c(OC(F)F)c3c1c2C(NC(=O)C[C@@H](C)O)CC3 (stereo partly drawn) [5-2, (R)-N-((1R,9S)-4-(difluoromethoxy)-9-ethyl-5-fluoro-9-hydroxy-10,13-dioxo-2,3,9,10,13,15-hexahydro-1H,12H-benzo[de]pyrano[3',4',6,7]indolizino[1,2-b]quinolin-1-yl)-3-hydroxybutanamide] | – | – | – | 9.4 | 20 | 18 |
| CC[C@@]1(O)C(=O)OCc2c1cc1n(c2=O)Cc2c-1nc1cc(F)c(C)c3c1c2C(NC(=O)C[C@@H](C)O)CCC3 (stereo partly drawn) [6-1, (R)-N-((1S,10S)-10-ethyl-6-fluoro-10-hydroxy-5-methyl-11,14-dioxo-1,2,3,4,10,11,14,16-octahydro-13H-cyclohepta[3',4',6,7]indolizino[1,2-b]quinolin-1-yl)-3-hydroxybutanamide] | – | – | – | 8.8 | 11 | 7.5 |
| C=Cc1c(F)cc2nc3c(c4c2c1CCC4NC(=O)C[C@@H](C)O)Cn1c-3cc2c(c1=O)COC(=O)[C@]2(O)CC (stereo partly drawn) [7-1, (R)-N-((1S,9S)-9-ethyl-5-fluoro-9-hydroxy-10,13-dioxo-4-vinyl-2,3,9,10,13,15-hexahydro-1H,12H-benzo[de]pyrano[3',4',6,7]indolizino[1,2-b]quinolin-1-yl)-3-hydroxybutanamide] | – | – | – | 3.1 | 8.6 | – |
| CC[C@@]1(O)C(=O)OCc2c1cc1n(c2=O)Cc2c-1nc1cc(F)c(OCC(F)(F)F)c3c1c2C(NC(=O)C[C@@H](C)O)CC3 (stereo partly drawn) [8-2, (R)-N-((1R,9S)-9-ethyl-5-fluoro-9-hydroxy-10,13-dioxo-4-(2,2,2-trifluoroethoxy)-2,3,9,10,13,15-hexahydro-1H,12H-benzo[de]pyrano[3',4',6,7]indolizino[1,2-b]quinolin-1-yl)-3-hydroxybutanamide] | – | – | – | 38 | 87 | – |
| CC[C@@]1(O)C(=O)OCc2c1cc1n(c2=O)Cc2c-1nc1cc(F)c(C3CC3)c3c1c2C(NC(=O)[C@H]1C[C@@H](O)C1)CC3 (stereo partly drawn) [18-1, (1S,3S)-N-((1R,9S)-4-cyclopropyl-9-ethyl-5-fluoro-9-hydroxy-10,13-dioxo-2,3,9,10,13,15-hexahydro-1H,12H-benzo[d]pyrano[3',4':6,7]indolizino[1,2-b]quinolin-1-yl)-3-hydroxycyclobutane-1-carboxamide] | – | – | – | 12 | – | – |
| CC[C@@]1(O)C(=O)OCc2c1cc1n(c2=O)Cc2c-1nc1ccc(O)c3c1c2CCC3 [compound 9, (S)-9-ethyl-4,9-dihydroxy-1,2,3,9,12,15-hexahydro-10H,13H-benzopyrano[3',4',6,7]indolizino[1,2-b]quinoline-10,13-dione] | – | – | 3 | – | – | – |
| (R)-3-cyclopropyl-N-((1S,9S)-4-cyclopropyl-9-ethyl-5-fluoro-9-hydroxy-10,13-dioxo-2,3,9,10,13,15-hexahydro-1H,12H-benzo[d]pyrano[3',4':6,7]indolizino[1,2-b]quinolin-1-yl)-3-hydroxypropanamide [34-2] | – | – | – | 4 | – | 6 |

Reference: patent EP4692091A1, “CA[…], AND PHARMACEUTICAL COMPOSITION, PREPARATION METHOD THEREFOR AND USE THEREOF” (Changchun Genescience Pharmaceutical Co., Ltd., priority 2023, dated 2024)
